From US11591355B2 (Peloton Therapeutics, Inc., priority 2017, dated 2023)
pIC50: −log10 of the molar value.

Assays:
Human CD73 = biological target: T1, Human CD73 (Homo sapiens, UniProt P21589); test: CD73 Enzyme Assay; type: biochemical; conditions: 0.25 nM hCD73, 25 μM AMP, kinetic read at 360 nm; read-out: CD73 Enzyme Assay IC50
T1 construct: purchased R&D Systems; host or cells: CHO cells
T1 sequence (P21589 27-549): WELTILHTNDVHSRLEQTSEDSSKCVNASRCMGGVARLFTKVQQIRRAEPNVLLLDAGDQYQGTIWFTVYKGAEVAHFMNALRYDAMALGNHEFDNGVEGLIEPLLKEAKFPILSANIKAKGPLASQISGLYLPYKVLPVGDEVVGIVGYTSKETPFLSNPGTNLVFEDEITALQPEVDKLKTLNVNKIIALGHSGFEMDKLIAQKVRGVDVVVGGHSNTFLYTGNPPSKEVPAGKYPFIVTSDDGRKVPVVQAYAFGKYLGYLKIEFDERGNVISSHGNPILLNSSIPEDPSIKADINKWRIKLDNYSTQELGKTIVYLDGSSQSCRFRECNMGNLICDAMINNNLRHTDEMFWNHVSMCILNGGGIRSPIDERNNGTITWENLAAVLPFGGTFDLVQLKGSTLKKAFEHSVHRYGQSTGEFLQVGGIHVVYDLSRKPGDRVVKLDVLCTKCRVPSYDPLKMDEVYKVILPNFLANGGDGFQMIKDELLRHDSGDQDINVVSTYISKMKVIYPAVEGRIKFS

[1] = biological target: T2, CD73 on U138 human neuroglioma cells (Homo sapiens, UniProt P21589); test: CD73 Cell-Based Assay; conditions: U138 cells, AMP substrate, 2 hours at 37° C., inorganic phosphate by malachite green
T2 construct: U138 cells were obtained from ATCC and cultured in DMEM with 10% FBS; host or cells: U138 human neuroglioma cells
T2 sequence (P21589 27-549): T1 sequence (P21589 27-549)
Protocol: U138 human neuroglioma cells were used in these experiments. U138 cells were obtained from ATCC and cultured in DMEM with 10% FBS. 2500 cells were seeded into 96-well plate with 100 μL of media the day before the experiment. Cells were washed twice with 200 μL of assay buffer (20 mM HEPES, pH 7.4; 137 mM NaCl; 5.4 mM KCl; 1.3 mM CaCl2); 4.2 mM NaHCO3; 1 mg/mL glucose) to remove residual inorganic phosphate. After washing, 100 μL of buffer was added to each well, then 100 μL of a mixture of AMP substrate (200 μM) and diluted compound was added to each well. The cells were incubated at 37° C. (with 5% CO2) for 2 hours. 50 μL of supernatant was transferred to a 96-well assay plate and the concentration of inorganic phosphate was determined using malachite green reagent (R&D System; Cat: DY996).

SMILES | pIC50 (Human CD73) | pIC50 [1]
O=P(O)(O)COC[C@H]1O[C@@H](n2cnc3c(-c4ccccc4)ncnc32)[C@H](O)[C@@H]1O [Compound 46, [(2R,3S,4R,5R)-3,4-dihydroxy-5-(6-phenylpurin-9-yl)tetrahydrofuran-2-yl]methoxymethylphosphonic acid] | < 6.00 | < 6.00
C[C@H](Nc1ncnc2c1ncn2[C@@H]1O[C@H](COCP(=O)(O)O)[C@@H](O)[C@H]1O)c1ccc(F)cc1 [Compound 49, [(2R,3S,4R,5R)-5-[6-[[(1S)-1-(4-fluoro-phenyl)ethyl]amino]-purin-9-yl]-3,4-dihydroxy-tetrahydro-furan-2-yl]methoxy-methylphosphonic acid] | 7.00 to 8.00 | 7.00 to 8.00
O=P(O)(O)COC[C@H]1O[C@@H](n2cnc3c(OC4CCCC4)ncnc32)[C@H](O)[C@@H]1O [Compound 55, [(2R,3S,4R,5R)-5-[6-(cyclopentoxy)purin-9-yl]-3,4-dihydroxy-tetrahydrofuran-2-yl]-methoxymethylphos-phonic acid] | 6.00 to 7.00 | < 6.00
C[C@@H](Nc1nc(C#N)nc2c1ccn2[C@@H]1O[C@H](COCP(=O)(O)O)[C@@H](O)[C@H]1O)c1ccccc1 [Compound 62, [(2R,3S,4R,5R)-5-[2-cyano-4-[[(1R)-1-phenylethyl]amino]pyrrolo[2,3-d]pyrimidin-7-yl]-3,4-dihydroxy-tetrahydrofuran-2-yl]methoxymethylphosphonic acid] | > 8.00 | > 8.00
C[C@H](Nc1nc(C#N)nc2c1ccn2[C@@H]1O[C@H](COCP(=O)(O)O)[C@@H](O)[C@H]1O)c1ccccc1 [Compound 67, [(2R,3S,4R,5R)-5-[2-cyano-4-[[(1S)-1-phenylethyl]amino]-pyrrolo[2,3-d]-pyrimidin-7-yl]-3,4-dihydroxy-tetrahydro-furan-2-yl]methoxy-methylphosphonic acid] | 7.00 to 8.00 | > 8.00
C[C@@H](Nc1nc(Cl)nc2c1ccn2[C@@H]1O[C@H](COCP(=O)(O)O)[C@@H](O)[C@H]1O)c1ccc(F)cc1 [Compound 69, [(2R,3S,4R,5R)-5-[2-chloro-4-[[(1R)-1-(4-fluorophenyl)ethyl]-amino]pyrrolo[2,3-d]-pyrimidin-7-yl]-3,4-dihydroxy-tetrahydro-furan-2-yl]methoxy-methylphosphonic acid] | > 8.00 | > 8.00
N#Cc1nc(NC2CCCC2)c2ccn([C@@H]3O[C@H](COCP(=O)(O)O)[C@@H](O)[C@H]3O)c2n1 [Compound 71, [(2R,3S,4R,5R)-5-[2-cyano-4-(cyclopentyl-amino)pyrrolo[2,3-d]-pyrimidin-7-yl]-3,4-dihydroxy-tetrahydro-furan-2-yl]methoxy-methylphosphonic acid] | > 8.00 | > 8.00
C[C@H](Nc1nc(C#N)nc2c1ccn2[C@@H]1O[C@H](COCP(=O)(O)O)[C@@H](O)[C@H]1O)c1ccc(F)cc1 [Compound 72, [(2R,3S,4R,5R)-5-[2-cyano-4-[[(1S)-1-(4-fluorophenyl)ethyl]-amino]pyrrolo[2,3-d]-pyrimidin-7-yl]-3,4-dihydroxy-tetrahydro-furan-2-yl]methoxy-methylphosphonic acid] | > 8.00 | > 8.00
C[C@H](Nc1nc(Cl)nc2c1ccn2[C@@H]1O[C@H](COCP(=O)(O)O)[C@@H](O)[C@H]1O)c1cccc(F)c1 [Compound 74, [(2R,3S,4R,5R)-5-[2-chloro-4-[[(1S)-1-(3-fluorophenyl)ethyl]-amino]pyrrolo[2,3-d]-pyrimidin-7-yl]-3,4-dihydroxy-tetrahydro-furan-2-yl]methoxy-methylphosphonic acid] | > 8.00 | 7.00 to 8.00
C[C@H](Nc1nc(C#N)nc2c1ccn2[C@@H]1O[C@H](COCP(=O)(O)O)[C@@H](O)[C@H]1O)c1cccc(F)c1 [Compound 75, [(2R,3S,4R,5R)-5-[2-cyano-4-[[(1S)-1-(3-fluorophenyl)ethyl]-amino]pyrrolo[2,3-d]-pyrimidin-7-yl]-3,4-dihydroxy-tetrahydro-furan-2-yl]methoxy-methylphosphonic acid] | > 8.00 | 7.00 to 8.00
C[C@H](Nc1nc(Cl)nc2c1c(F)cn2[C@@H]1O[C@H](COCP(=O)(O)O)[C@@H](O)[C@H]1O)c1ccccc1 [Compound 76, ((((2R,3S,4R,5R)-5-(2-chloro-5-fluoro-4-(((S)-1-phenylethyl)amino)-7H-pyrrolo[2,3-d]pyrimidin-7-yl)-3,4-dihydroxytetrahydrofuran-2-yl)methoxy)methyl)phosphonic acid] | > 8.00 | 7.00 to 8.00

Continued, values first:

pIC50 (Human CD73) | pIC50 [1] | SMILES
6.00 to 7.00 | 6.00 to 7.00 | O=P(O)(O)COC[C@H]1O[C@@H](n2cnc3c(N4CCCC4)ncnc32)[C@H](O)[C@@H]1O [Compound 43, [(2R,3S,4R,5R)-3,4-dihydroxy-5-(6-pyrrolidin-1-ylpurin-9-yl)tetrahydrofuran-2-yl]methoxymethyl-phosphonic acid]
6.00 to 7.00 | 6.00 to 7.00 | O=P(O)(O)COC[C@H]1O[C@@H](n2cnc3c(NC4CCc5ccccc54)ncnc32)[C@H](O)[C@@H]1O (stereo partly drawn) [Compound 52]
7.00 to 8.00 | 7.00 to 8.00 | O=P(O)(O)COC[C@H]1O[C@@H](n2cnc3c(N4Cc5ccccc5C4)nc(Cl)nc32)[C@H](O)[C@@H]1O [Compound 54, [(2R,3S,4R,5R)-5-(2-chloro-6-isoindolin-2-yl-purin-9-yl)-3,4-dihydroxy-tetrahydro-furan-2-yl]methoxy-methylphosphonic acid]
7.00 to 8.00 | 7.00 to 8.00 | O=P(O)(O)COC[C@H]1O[C@@H](n2ccc3c(NCc4ccccc4)nc(Cl)nc32)[C@H](O)[C@@H]1O [Compound 56, [(2R,3S,4R,5R)-5-[4-(benzylamino)-2-chloro-pyrrolo[2,3-d]-pyrimidin-7-yl]-3,4-dihydroxy-tetrahydro-furan-2-yl]methoxy-methylphosphonic acid]
6.00 to 7.00 | 6.00 to 7.00 | O=P(O)(O)COC[C@H]1O[C@@H](n2cnc3c(NCc4ccccc4)cc(Cl)nc32)[C@H](O)[C@@H]1O [Compound 57, [(2R,3S,4R,5R)-5-[7-(benzylamino)-5-chloro-imidazo[4,5-b]pyridin-3-yl]-3,4-dihydroxy-tetrahydrofuran-2-yl]methoxymethylphosphonic acid]
> 8.00 | 7.00 to 8.00 | C[C@H](Nc1nc(Cl)nc2c1ccn2[C@@H]1O[C@H](COCP(=O)(O)O)[C@@H](O)[C@H]1O)c1ccccc1 [Compound 60, [(2R,3S,4R,5R)-5-[2-chloro-4-[[(1S)-1-phenylethyl]amino]-pyrrolo[2,3-d]-pyrimidin-7-yl]-3,4-dihydroxy-tetrahydro-furan-2-yl]methoxy-methylphosphonic acid]
> 8.00 | > 8.00 | C[C@@H](Nc1nc(Cl)nc2c1ccn2[C@@H]1O[C@H](COCP(=O)(O)O)[C@@H](O)[C@H]1O)c1ccccc1 [Compound 61, [(2R,3S,4R,5R)-5-[2-chloro-4-[[(1R)-1-phenylethyl]amino]pyrrolo[2,3-d]pyrimidin-7-yl]-3,4-dihydroxy-tetrahydrofuran-2-yl]methoxymethylphosphonic acid]
7.00 to 8.00 | 7.00 to 8.00 | C[C@H](Nc1nc(Cl)nc2c1ccn2[C@@H]1O[C@H](COCP(=O)(O)O)[C@@H](O)[C@H]1O)c1ccc(F)cc1 [Compound 68, [(2R,3S,4R,5R)-5-[2-chloro-4-[[(1S)-1-(4-fluorophenyl)ethyl]-amino]pyrrolo[2,3-d]-pyrimidin-7-yl]-3,4-dihydroxy-tetrahydro-furan-2-yl]methoxy-methylphosphonic acid]
> 8.00 | > 8.00 | O=P(O)(O)COC[C@H]1O[C@@H](n2ccc3c(NC4CCCC4)nc(Cl)nc32)[C@H](O)[C@@H]1O [Compound 70, [(2R,3S,4R,5R)-5-[2-chloro-4-(cyclopentylamino)pyrrolo[2,3-d]pyrimidin-7-yl]-3,4-dihydroxy-tetrahydrofuran-2-yl]methoxymethylphosphonic acid]
> 8.00 | > 8.00 | C[C@@H](Nc1nc(C#N)nc2c1ccn2[C@@H]1O[C@H](COCP(=O)(O)O)[C@@H](O)[C@H]1O)c1ccc(F)cc1 [Compound 73, [(2R,3S,4R,5R)-5-[2-cyano-4-[[(1R)-1-(4-fluorophenyl)ethyl]-amino]pyrrolo[2,3-d]-pyrimidin-7-yl]-3,4-dihydroxy-tetrahydro-furan-2-yl]methoxy-methylphosphonic acid]
